Laboratory results as given in paper PMC10797628.
Substitutions are numbered along the chain they refer to. pKi: −log10 of the molar value. Like-named read-outs stand apart in the source and are kept apart here.

Assays:
[1] = system: mouse model of fragile X syndrome; set-up: method as in PMID 32566916; conditions: cited from earlier work
[2] = set-up: method as in PMID 26011730; conditions: cited from earlier work
[3] = molecular target: T1, human 5-HT1A receptor (Homo sapiens, UniProt P08908); test: Radioligand binding (saturation and competition), WT 5-HT1A
T1 construct: host or cells: HEK293T
T1 sequence (P08908 1-422): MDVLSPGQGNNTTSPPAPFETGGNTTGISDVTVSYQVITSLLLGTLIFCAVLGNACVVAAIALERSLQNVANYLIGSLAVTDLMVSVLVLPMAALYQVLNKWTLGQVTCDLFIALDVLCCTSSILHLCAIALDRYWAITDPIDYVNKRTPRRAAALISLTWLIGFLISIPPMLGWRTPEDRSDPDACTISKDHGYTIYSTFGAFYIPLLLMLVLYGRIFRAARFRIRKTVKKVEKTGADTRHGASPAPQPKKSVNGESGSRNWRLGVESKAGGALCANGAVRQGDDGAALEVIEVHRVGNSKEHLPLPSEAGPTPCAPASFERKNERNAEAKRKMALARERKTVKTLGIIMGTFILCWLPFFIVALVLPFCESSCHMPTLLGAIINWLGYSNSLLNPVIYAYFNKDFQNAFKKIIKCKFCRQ

[4] = molecular target: T2, Y5.38A 5-HT1A receptor (Homo sapiens, UniProt P08908, Y195A); test: Radioligand binding, Y5.38A 5-HT1A
T2 sequence (P08908 1-422 Y195A): T1 sequence (P08908 1-422) with Y195A
Method: 48 hours after transfection with the desired receptor construct, cells were isolated for saturation and competition binding assays as previously described.[47],[48],[57] Saturation and competition radioligand binding assays were conducted in an assay buffer consisting of 50 mM Tris HCl, 10 mM MgCl2, and 0.1 mM EDTA in filtered deionized water. […] Briefly, 5–10 μg of the receptor protein, as determined by a Thermo Fisher Pierce BCA protein assay kit, was incubated with 8 concentrations of radioligand in triplicate to determine total binding. […] Nonspecific binding was determined as above for saturation assays.
For radioligand binding data, nonspecific binding was subtracted from the total binding to get specific binding. Saturation binding data was fit to the “binding saturation-specific binding with hill slope” model. Competition binding data were fit to the “binding competition-one-site fit Ki” non-linear regression model and transformed to pKi values, reported as mean ± SD.
is 50 mM Tris HCl, 10 mM MgCl2 and 0.1 mM EDTA in filtered deionized water.

[5] = molecular target: T3, V3.33I 5-HT1A receptor (Homo sapiens, UniProt P08908, V117I); test: cAMP accumulation in HEK293T cells, V3.33I 5-HT1A; type: cell-based; set-up: mutated in house (Quikchange II) HTR01A0000; host or cells: HEK293T; conditions: point-mutated receptor, 3 independent experiments, read-out: pEC50 5-HT1A Receptor V3.33I (converted)
T3 sequence (P08908 1-422 V117I): T1 sequence (P08908 1-422) with V117I
Method: (§1) Briefly, cells transfected with the desired receptor construct and compounds were incubated in the dark for 90 min at 37 °C. After incubation, cAMP detection reagents were added, and TR-FRET was used to quantify the cAMP produced.
(§2) The functional activity of compounds was determined by stimulating cells expressing the desired receptor with FSK and test compound in parallel with 12 known concentrations of cAMP. The known concentrations of cAMP were used to create a standard curve for each experiment that was used to interpolate the unknown values of cAMP in wells with test compounds. […] The EC50 and EMAX values were determined using the “dose response – log[agonist] vs response (three parameter)” nonlinear regression model in Prism and transformed to pEC50 values, reported as mean ± SD.
(§3) Summary of functional assay conditions at various 5-HT1 receptor point mutation constructs.

[6] = molecular target: T4, Y5.38F 5-HT1A receptor (Homo sapiens, UniProt P08908, Y195F); test: cAMP accumulation in HEK293T cells, Y5.38F 5-HT1A; type: cell-based; set-up: mutated in house (Quikchange II) HTR01A0000; host or cells: HEK293T; conditions: point-mutated receptor, 3 independent experiments, read-out: pEC50 5-HT1A Receptor Y5.38F (converted)
T4 sequence (P08908 1-422 Y195F): T1 sequence (P08908 1-422) with Y195F
Method: as §1, §2, §3

Compound | prosocial behaviors [1] | repetitive behaviors [1] | spontaneous seizures [1] | oral activity [2] | sedation [2] | pKi ([3]; Affinity (pKi ± SD) 5-HT1A, WT receptor, [^3H]5-CT competition, mean ± SD) | pKi [4] | EC50 [5] | EC50 [6] | Ki ([3]; read-out: Affinity (pKi ± SD) 5-HT1A (converted))
CN(C)[C@H]1CCc2c(cccc2-c2ccccc2F)C1 [(S)-FPT] | increased | reduced | reduced | orally active | did not cause sedation |  |  |  |  | 
CN(C)[C@H]1CCc2c(cccc2-c2cccc3ccccc23)C1 [(S)-NAP] |  |  |  |  |  | 7.21 | 6.61 | 355 nM | 380 nM | 
Fc1ccccc1-c1cccc2c1CC[C@H](N1CCCC1)C2 [(S)-PFPT] |  |  |  |  |  |  | 9.02 | 10.5 nM | 2.09 nM | 1.26 nM
